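Tested at 5 concentrations; 48 h exposure; 96-well plates; endpoints linearly interpolated, else capped at highest concentration. At the GI50, growth is halved.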 The source made the active and inactive calls. No stated cut-off is given here; in the data, active = GI50 up to about 1.1 µM and inactive = higher.
Tests used:
Assay in all cases: NCI-60 cell line screen, 48 h
[1] = test system: SNB-75
[2] = test system: OVCAR-5
[3] = test system: MDA-MB-435
[4] = test system: HT-29
[5] = test system: EKVX
[6] = test system: NCI-H460
[7] = test system: ACHN
[8] = test system: OVCAR-3
[9] = test system: M14
[10] = test system: U-251
[11] = test system: 786-0
[12] = test system: NCI-H522
[13] = test system: UACC-62
[14] = test system: K562
[15] = test system: SF-268
[16] = test system: NCI/ADR-RES
[17] = test system: SNB-19
[18] = test system: A549
[19] = test system: NCI-H226
[20] = test system: SNB-78

Measured: GI50

COC(=O)/C(=C\c1ccco1)P(=O)(OC)OC
inactive: [1] 35.2 µM | [2] 16.2 µM | [3] 34.8 µM | [4] 25.9 µM | [5] 43.3 µM | [6] 48.3 µM | [7] 29.4 µM | [8] 26.9 µM | [9] 55.7 µM | [10] 41 µM | [11] 47.4 µM | [12] 2.49 µM | [13] 47.6 µM | [14] > 100 µM | [15] 97.3 µM | [16] 24.5 µM | [17] 65.2 µM | [18] 85.1 µM | [19] 58.3 µM

C/C(=N\NC(N)=S)c1cc(C)c(C)cc1C
inactive: [1] 30.6 µM | [2] 20.1 µM | [4] 20.2 µM | [5] 8.69 µM | [6] 43.9 µM | [7] > 100 µM | [8] 24.4 µM | [9] 37.2 µM | [10] 48.6 µM | [11] 93.8 µM | [13] 30.9 µM | [14] 40.3 µM | [20] > 100 µM | [15] 62.4 µM | [18] 45.2 µM | [19] > 100 µM

C=C1C2CC(OC(C)=O)C3(C)C(c4ccoc4)OC(=O)[C@@H](O)[C@]13OC1C[C@H](OC(C)=O)C(C)(C)[C@H](CC(=O)OC)[C@]12C (some centres undefined)
inactive: [1] 33.6 µM | [4] > 100 µM | [5] > 100 µM | [6] > 100 µM | [7] > 100 µM | [8] > 100 µM | [9] > 100 µM | [10] > 100 µM | [11] > 100 µM | [13] > 100 µM | [14] > 100 µM | [20] > 100 µM | [17] > 100 µM | [18] > 100 µM | [19] > 100 µM

O=C(Oc1ccccn1)c1cc2cc(CCl)ccc2oc1=O
inactive: [1] 24.8 µM | [2] 37.5 µM | [3] 51.3 µM | [4] 76.7 µM | [5] 36.8 µM | [6] 43.7 µM | [7] 43.8 µM | [8] 19.4 µM | [9] > 100 µM | [10] 18.5 µM | [11] 19.5 µM | [12] 15.2 µM | [13] 27.2 µM | [14] 32.7 µM | [15] 20.3 µM | [16] 27 µM | [17] 27 µM | [18] > 100 µM | [19] 71.1 µM

— ChEMBL document CHEMBL1201862, “PubChem BioAssay data set” (2004)
